Data set [1] concerns PTEN. Briefly: PTEN expression upon SALL4 gene knockdown in HCC cells (qPCR, Western blot densitometry). To be noted: day 4 post-transduction. The data set is classed as cell-based, human. From the text:
FIGS. 26A-26C: PTEN repression as a mechanism of SALL4-induced HCC. (26A) qPCR analysis of PTEN expression upon SALL4 gene knockdown. […] E5 shRNA is a shRNA specifically targets SALL4. (26B) Western blot analysis of PTEN protein expression upon SALL4 gene knockdown using fractionated nuclear (N) and cytoplasmic […] lysates. A total cell lysate (T) was used for protein expression analysis too. SALL4 is exclusively present in cell nuclei (left). Densitometry analysis of total PTEN expression (top right) and cytoplasmic PTEN expression (bottom right).
PTEN expression upon SALL4 gene knockdown was investigated by qPCR and western blot.

Data set [2] deals with HDAC1 and HDAC2. Briefly: Anti-FITC pull-down of FITC-labeled peptides from SNU-398 nuclear extracts, Western blot for HDAC1/HDAC2. The data set is classed as binding, human. To be noted: anti-FITC IP. The method, then:
For the pull down assay FITC-labeled version of the peptides and anti-FITC antibody (Santa Kruz, Calif.) was used. The antibody was immobilized covalently on the surface of Dinabeads (Invitrogen). The magnetic beads were than used in the pull down reaction according to the instruction of the manufacturer with the following minor modifications: 1 mM DTT, 0.1 mM NaF, 1 mM PMSF, 1 mM Na orthovanadate, and 1:100 final dilution of protease inhibitor, (Sigma Co.) was added to the extraction buffer. The NaCl concentration was optimized to 100 mM. Eluted proteins were submitted to Western blotting using standard procedure and the protein bands were visualized using antibodies to HDAC1 and 2 (Sigma)
Next tested was whether this wt 12-AA could compete with SALL4 in interacting with NuRD. A hepatocellular carcinoma cell line SNU-398 with abundant SALL4 expression was chosen for the following groups of experiences. Whether the wt 12-AA or its control (Mut and Scr) can bind to HDAC1 and HDAC2, the two NuRD components, was first evaluated. […] The histone deacetylase activity of the peptide pull-down complex was then measured using a Fluorescent Assay kit (Active Motif) (FIG. 1D). The active enzymatic activity of the HDACs tested by this assay corresponds to the amount of the HDAC proteins in the sample.
First evaluated was whether the wild type peptide or the mutant or scrambled controls could bind to HDAC1 and HDAC2, which comprise part of the NuRD complex 38. The hepatocellular carcinoma (HCC) cell line SNU-398 expresses abundant amount of SALL4 and was chosen for the following 9 experiments. […] To test this possibility, the histone deacetylase activity of the peptide pull-down complex was measured using a fluorescent assay kit (FIG. 8C). The active enzymatic activity of the HDACs tested by this assay corresponded to the amount of the HDAC proteins in the sample.
In general terms: In western blotting, separated proteins are transferred to a membrane and probed.

The subject of data set [3] is SNU387. Briefly: Cellular uptake of FITC-labeled peptide. Type of data set: cell-based, human. As for the experimental part:
(§1) Cells were grown typically in 6 well plates (35 mm dish) to 50-70% confluence. Usually the transfect ion efficiency is somehow cell type specific. 2 mM peptide was diluted 4 times in PBS (2 ul+6 ul) (For FITC peptidedo not dilute the 2 mM stock). For each transfection reaction tube with 100 ul PBS+1 ul diluted peptide was set up. Chariot reagent was diluted 1:10 in ddH2O and for each transfection a 94 ul H2O tube+6 ul diluted Chariot was prepared (No master mix for more than 4 transfections). The 2 tubes were carefully mixed by pipetting up and down and incubated 30 min. at room temperature. Medium was aspirated from the dish (well) and cells were overlay with the mix. 400 ul serum free medium was added and cells were incubated further for 1 h 37 C (cell incubator). 500 ul complete medium (with 10% serum) was finally added. If cells are not very sensitive to serum starvation (cancer cell lines) 5% serum could be used.
(§2) Fluorescent and Confocal microscopy was performed on cells treated with FITC labeled peptides with or without of transfection reagent depending on the cell type. Cells were mounted on cover slips using mounting media with DAPI (Invitrogen) and in some cases cytoskeleton dye (Invitrogen).
(§3) In order to evaluate their cellular uptake and localization, the N terminus of these peptides was labeled with fluorescein isothiocyanate (FITC). Despite the net positive charge of these peptides, their uptake by the cells is cell-type specific. Some cell lines such as HL-60 (an AML cell line) allowed the peptide to enter the cells without any modification or carrier, and some cell lines were not penetrable at all. In order to achieve a similar level of peptide delivery in most cell types, a Chariot Transfection Reagent (Active Motif) was used as a peptide carrier, as directed from the manufacturer. All cell types used in the study described herein were subjected to individual evaluation of the percentage of the cells in which the peptide was delivered as well as the duration of time during which they sustained the labeled peptide in the cells. After Chariot treatment, confocal microscopy studies confirmed uptake of these peptides throughout the cell, including nuclei (as evidenced by DAPI overlay, FIG. 1B).

Data set [4] concerns HL60. Briefly: Cellular uptake of FITC-labeled peptide. The data set is classed as cell-based, human. The method, then: as §1, §2, §3
Data set [5] has as its system AML. Briefly: Cellular uptake of FITC-labeled peptide. The data set is classed as cell-based, human. The method, then:
as §1, §2, §3

The test system of data set [6] is HuH-7. Briefly: Cellular uptake of FITC-labeled peptide. Type of data set: cell-based, human. The method, then: as §1, §2, §3
Data set [7] concerns AML3. Briefly: Cellular uptake of FITC-labeled peptide. Type of data set: cell-based. The method, then:
as §1, §2, §3

Data set [8] concerns MCF7. Briefly: Cellular uptake of FITC-labeled peptide. The data set is classed as cell-based. As for the experimental part:
as §1, §2, §3

Data set [9] has as its system NP4. Briefly: Cellular uptake of FITC-labeled peptide. The data set is classed as cell-based. The method, then: as §1, §2, §3
In data set [10] the test system is HeLa. Briefly: Cellular uptake of FITC-labeled peptide. Type of data set: cell-based. As for the experimental part: as §1, §2, §3
For data set [11], the system named is CD34+. Briefly: Cellular uptake of FITC-labeled peptide. Type of data set: cell-based. As for the experimental part: as §1, §2, §3
Data set [12] relates to KG1a. Briefly: Cellular uptake of FITC-labeled peptide. The data set is classed as cell-based. As for the experimental part: as §1, §2, §3
Data set [13] has as its system OV90. Briefly: Peptide treatment of ovarian cancer cells. The data set is classed as cell-based. The method, then: Mut-peptide: mutant peptide; WT-peptide: wild-type peptide.
To understand the mechanism(s) of SALL4 function(s), SALL4-associated proteins were identified by tandem mass spectrometry. Components of the Mi-2/nucleosome remodeling and deacetylase (NuRD) complex were found in SALL4-immunocomplexes along with HDAC activity in ESCs with endogenous SALL4 expression and 293T cells overexpressing SALL4. The SALL4-mediated transcriptional regulation was tested on one potential target gene: Phosphatase and Tensin Homolog (Pten). Pten was confirmed as SALL4 downstream targets by chromatin-immunoprecipitation (ChIP), and its expression level, when tested by quantitative reverse transcription polymerase chain reaction (qRT-PCR), was decreased in 293T cells overexpressing SALL4. […] A small peptide that can block the oncogenic role of SALL4 in repressing Pten has been generated.

Where two headings read alike, the source gives them in different places.

For the substance “CTATTTAGCCAAAGGCAAA (short hairpin RNA, chemistry and delivery not given here, further chemistry not given here) [E5 shRNA]”, the “increase of PTEN mRNA” value in data set [1] is reported as 16.5%.

Regarding “Scr peptide: same 12 amino acids as the wt peptide, but in a scrambled sequence; negative control (SRMRQKIHPKIQ) [reference compound]”, the “HDAC1 and HDAC2 detected in peptide pull-down” value in [2] is reported as “never”; in data set [2] (listed as scrambled peptide), “undetectable”.

Regarding “H-MSRRKQAKPQHI-OH [wt peptide, MSRRKQAKPQHI]”, the “HDAC1 and HDAC2 detected in peptide pull-down” value is listed as “easily detected” in data set [2] (listed as wild type peptide) and “detected” in data set [2] (listed as wt). Moreover, the “peptide uptake (cells with peptide)” value in [3] (SNU387, no carrier) is given as 0%; in data set [3] (SNU387, with Chariot), 40%; in [4] (HL60, no carrier), approximately 50%; in data set [4] (HL60, with Chariot), 70%; in data set [5] (no carrier), 0%; in [5] (with Chariot), 50%. Further, the “peptide uptake (cells with peptide)” value in [6] (HuH-7, no carrier) is given as 0%; in data set [6] (HuH-7, with Chariot) it was 60%; in [7] (AML3, no carrier) it was approximately 5%; in [7] (AML3, with Chariot) it was 50%; in data set [8] (MCF7, no carrier), approximately 50%; in data set [8] (MCF7, with Chariot), 70%. Moreover, the “peptide uptake (cells with peptide)” value in [9] (NP4, no carrier) is more than 1%; in data set [9] (NP4, with Chariot) it was more than 5%; in data set [10] (no carrier) it was 0%; in [10] (with Chariot), 80%; in data set [11] (no carrier), 0%; in [11] (with Chariot) it was 50%. For the same substance, the “peptide uptake (cells with peptide)” value in data set [12] (no carrier) is listed as more than 10%; in [12] (with Chariot), 60%. Moreover, the “living cells / cell death” value in data set [13] is recorded as “decreased living cells”; in data set [13] (listed as small peptide), “resulted in cell death”.

These data come from patent US9365851B2, “Spalt-like transcription factor 4 (SALL4) and uses thereof” (National University of Singapore, priority 2011, dated 2016).
